Where a SMILES comes first, the peptide text is derived from it. [ ]: non-standard residue; d: D form. The star is where a group is joined. Tic = O=C(O)[C@@H]1Cc2ccccc2CN1; NHPhenethyl = c1ccc(CCN*)cc1
Tests used:
mice = settings: S. D. Comer et al. 1993; cited from earlier work
mouse vas deferens (MVD) = experiment: Mouse vas deferens (MVD) bioassay: inhibition of electrically evoked contractions; type: cell-based; settings: for IC50: inhibition of electrically evoked contractions, normalized with [Leu5]enkephalin standard, effect mostly δ-mediated; for GPI/MVD IC50 ratio: ratio of GPI IC50 to MVD IC50
Description: (§1) Bioassays based on inhibition of electrically evoked contractions of the mouse vas deferens (MVD) and of the guinea pig ileum (GPI) were performed. In the GPI assay the opioid effect is primarily mediated by μ opioid receptors, whereas in the MVD assay the inhibition of the contractions is mostly due to interaction with δ opioid receptors.
(§2) The GPI and MVD bioassays were carried out as reported in P. W. Schiller et al., Biochem. Biophys. Res. Commun. 85, 1332-1338 (1978) and J. DiMaio et al., J. Med. Chem. 25, 1432-1438 (1982). A log-dose response curve was determined with [Leu^5 ]enkephalin as standard for each ileum and vas preparation, and IC50 values of the compounds being tested were normalized according to A. A. Waterfield et al., Eur. J. Pharmacol. 58, 11-18 (1979).

guinea pig ileum (GPI) = experiment: Guinea pig ileum (GPI) bioassay: inhibition of electrically evoked contractions; type: cell-based; settings: normalized with [Leu5]enkephalin standard, effect primarily μ-mediated
Description: as §1, §2

μ opioid receptor = target: T1, μ opioid receptor (Rattus norvegicus, UniProt P33535); experiment: μ opioid receptor binding assay, displacement of [3H]DAMGO from rat brain membranes; settings: [3H]DAMGO 0.7 nM, Cheng-Prusoff
T1 construct: Male Sprague-Dawley rats (300-350 g) from the Canadian Breeding Laboratories were decapitated and after removal of the cerebellum the brains were homogenized; from tissue; host or cells: rat brain (without cerebellum) membranes, male Sprague-Dawley
T1 sequence (P33535 whole entry): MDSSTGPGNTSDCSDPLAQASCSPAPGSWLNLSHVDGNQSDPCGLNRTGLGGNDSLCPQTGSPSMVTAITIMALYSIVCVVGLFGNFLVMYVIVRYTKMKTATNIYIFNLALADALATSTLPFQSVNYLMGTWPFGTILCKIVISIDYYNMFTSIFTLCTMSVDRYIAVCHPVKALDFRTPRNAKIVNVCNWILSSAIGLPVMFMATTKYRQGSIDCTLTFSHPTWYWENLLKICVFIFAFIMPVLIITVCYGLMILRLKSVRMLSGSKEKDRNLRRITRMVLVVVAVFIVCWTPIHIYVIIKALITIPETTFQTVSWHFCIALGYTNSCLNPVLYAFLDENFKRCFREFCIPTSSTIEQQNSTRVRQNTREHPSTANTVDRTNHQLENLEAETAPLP
Description: (§3) μ and δ opioid receptor binding constants (Ki^μ,Ki^δ) of the compounds were determrined by displacement of relatively selective μ and δ radioligands from binding sites in rat brain membrane preparations calculated from the measured IC50 values on the basis of the equation by Cheng and Prusoff, (Y. C. Cheng and W. H. Prusoff Biochem. Pharmnacol. 22, 3099-3102 (1973)).
(§4) The μ-, δ- and κ-opioid receptor affinities of all new analogs were determined in binding assays based on displacement of μ-, δ- and κ-selective radioligands from rat brain membrane binding sites. In the case of κ-ligands guinea pig brain homogenates were used, since the relative proportion of κ-binding sites is higher in guinea pig brain than in rat brain. The experimental procedure being used in our laboratory represents a modified version of the binding assay described by Pasternak et al. (Mol. Pharnacol. 11, 340-351 (1975)). Male Sprague-Dawley rats (300-350 g) from the Canadian Breeding Laboratories were decapitated and after removal of the cerebellum the brains were homogenized in 30 volumes of ice-cold standard buffer (50 mnM Tris HCl , pH 7.7). After centrifugation at 30,000×g for 30 min at 4° C. the membranes were reconstituted in the original volume of standard buffer and incubated for 30 min at 37° C. (to release bound endogenous ligands). Subsequent centrifugation and resuspension of the pellet in the initial volume of fresh standard buffer yielded the final membrane suspension. Aliquots (2 ml) of the membrane preparations were incubated for 1-2 h at 25° C. with 1 ml standard buffer containing the peptide to be tested and one of the following radioligands at the final concentration indicated: [^3 H]DAMGO, μ-selective, 0.7 nM; [^3 H]DSLET, μ-selective, 1.0 nM; and [^3 H]U69,563, κ-selective, 0.5 nM. The incubation was terminated by filtration through Whatman GF/B filters under vacuum at 4° C. Following two washings with 5 ml portions of ice-cold standard buffer the filters were transferred to scintillation vials and treated with 1 ml Protosol (New England Nuclear) for 30 min prior to addition of 0.5 ml acetic acid and 10 ml Aquasol (New England Nuclear). After shaking for 30 min the vials were counted at an efficiency of 40-45%. All experiments were performed in duplicate and repeated at least three times. Specific binding of each of the three radioligands was defined by performing incubations in the presence of cold DAMGO, DSLET and U69,563, respectively, at a concentration of 1 micromolar. Values of half-maximal inhibition (IC50) of specific binding were obtained graphically from semilogarithmic plots. From the measured IC50-values, binding inhibition constants (Ki) were calculated based on Cheng and Prusoff's equation (Biochem. Pharmacol. 22, 3099-3102 (1973)). Ratios of the Ki -values determined in the μ-, δ- and κ-representative binding assays are a measure of the receptor selectivity of the compound under investigation (e.g. Ki^μ /Ki^μ indicates the selectivity for δ-receptors versus μ-receptors).

δ opioid receptor [1] = target: T2, δ opioid receptor (Rattus norvegicus, UniProt P33533); experiment: δ opioid receptor binding assay, displacement of [3H]DSLET from rat brain membranes; settings: for Ki: rat brain membranes, [3H]DSLET 1.0 nM, Cheng-Prusoff; for Ki^μ/Ki^δ: δ versus μ receptor selectivity
T2 construct: Male Sprague-Dawley rats (300-350 g) from the Canadian Breeding Laboratories were decapitated and after removal of the cerebellum the brains were homogenized; from tissue; host or cells: rat brain (without cerebellum) membranes, male Sprague-Dawley
T2 sequence (P33533 whole entry): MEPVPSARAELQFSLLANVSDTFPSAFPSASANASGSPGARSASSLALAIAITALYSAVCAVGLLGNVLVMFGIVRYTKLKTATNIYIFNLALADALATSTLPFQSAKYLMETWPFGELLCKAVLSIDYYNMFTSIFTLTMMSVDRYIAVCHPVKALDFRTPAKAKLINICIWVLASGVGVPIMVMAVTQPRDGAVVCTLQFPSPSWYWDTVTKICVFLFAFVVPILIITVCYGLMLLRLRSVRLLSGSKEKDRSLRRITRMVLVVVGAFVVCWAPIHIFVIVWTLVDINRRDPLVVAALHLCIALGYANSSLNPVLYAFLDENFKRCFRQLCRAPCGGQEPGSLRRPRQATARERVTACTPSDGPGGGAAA
Description: as §3
as §4, with “[…];” for “[^3 H]DSLET, μ-selective, 1.0 nM;”

δ opioid receptor [2] = settings: reported at 23rd European Peptide Symposium 1994; cited from earlier work
mouse tail flick test = settings: J. Kamei et al. 1995; cited from earlier work

Compound | toxicity in mice (mice) | IC50 (mouse vas deferens (MVD)) [nM] | GPI/MVD IC50 ratio (mouse vas deferens (MVD)) | IC50 (guinea pig ileum (GPI)) [nM] | Ki (μ opioid receptor) [nM] | Ki (δ opioid receptor [1]) [nM] | Ki^μ/Ki^δ (δ opioid receptor [1]) | δ agonist / antagonist properties (δ opioid receptor [2]) | antinociceptive effect (mouse tail flick test)
C=CCN1C[C@H](C)N([C@H](c2ccc(C(=O)N(CC)CC)cc2)c2cccc(O)c2)C[C@H]1C (racemic) [BW 373U86, (±)-4-(a-R*)-a-(2S*,5R*)-4-allyl-2,5-dimethyl-1-piperazinyl)-3-hydroxybenzyl)-N,N-diethylbenzamide] | produced significant toxicity, manifested behaviorally as convulsions and barrel rolling |  |  |  |  |  |  |  | 
N[C@@H](Cc1ccc(O)cc1)C(=O)N1Cc2ccccc2C[C@H]1C(=O)NCC(c1ccc([N+](=O)[O-])cc1)c1ccc([N+](=O)[O-])cc1 [Example 24] |  | 8.91 ± 1.53 | 584 | 5200 ± 1100 | 635 ± 109 | 7.17 ± 0.24 | 88.6 |  | 
Nc1ccc(C(CNC(=O)[C@@H]2Cc3ccccc3CN2C(=O)[C@@H](N)Cc2ccc(O)cc2)c2ccc(N)cc2)cc1 [Example 25] |  | 7.81 ± 0.48 | > 1280 | > 10000 | 5340 ± 700 | 2.67 ± 0.83 | 2000 |  | 
N[C@@H](Cc1ccc(O)cc1)C(=O)N1Cc2ccccc2C[C@H]1C(=O)NCC(c1ccc(Cl)cc1)c1ccc(Cl)cc1 [Example 26] |  | 397 ± 33 | > 25.2 | > 10000 | 1560 ± 60 | 2.82 ± 0.07 | 553 |  | 
N[C@@H](Cc1ccc(O)cc1)C(=O)N1Cc2ccccc2C[C@H]1C(=O)NCCc1ccccc1[N+](=O)[O-] [Example 29] |  | 29.1 ± 10.6 | 63.6 | 1850 ± 540 | 355 ± 13 | 7.7 ± 0.45 | 46.1 |  | 
N[C@@H](Cc1ccc(O)cc1)C(=O)N1Cc2ccccc2C[C@H]1C(=O)NCCc1ccccc1 [H-Tyr-Tic-NH--CH2 --CH2 --Ph, reference compound] (H-Tyr-[Tic]-NHPhenethyl) |  | 82 ± 10 | 25.9 | 2120 | 69.1 | 5.22 ± 0.02 | 13.2 | full, but only moderately potent δ agonist | 
CN1CC[C@]2(c3cccc(O)c3)Cc3nc4ccccc4cc3C[C@H]2C1 [TAN-67, 2-methyl-4α,α-(3-hydroxyphenyl)-1,2,3,4,4a,5,12,12aα-octahydroquinolino[2,3,3-g]isoquinoline] |  |  |  |  |  |  |  |  | no significant antinociceptive effect

Reference: patent publication US6150335A, “Tic-containing opioid dipeptide derivatives useful as analgesics” (Astra AB, priority 1996, dated 2000)
